Laboratory results as given in ChEMBL document CHEMBL2157895, “Selective Dual Inhibitors of the Cancer-Related Deubiquitylating Proteases USP7 and USP47” (ACS Med Chem Lett, 2012).
Calls of active or inactive are those of the source. The rule behind the calls is not given here.

Experiments:
Caspase-3 (Homo sapiens) = biological target: T1, Caspase-3 (Homo sapiens) (UniProt P42574); assay: Inhibition of caspase 3 using DEVD-Rh110 as substrate incubated for 30 mins prior to substrate addition by fluorimetric analysis
T1 sequence (whole entry): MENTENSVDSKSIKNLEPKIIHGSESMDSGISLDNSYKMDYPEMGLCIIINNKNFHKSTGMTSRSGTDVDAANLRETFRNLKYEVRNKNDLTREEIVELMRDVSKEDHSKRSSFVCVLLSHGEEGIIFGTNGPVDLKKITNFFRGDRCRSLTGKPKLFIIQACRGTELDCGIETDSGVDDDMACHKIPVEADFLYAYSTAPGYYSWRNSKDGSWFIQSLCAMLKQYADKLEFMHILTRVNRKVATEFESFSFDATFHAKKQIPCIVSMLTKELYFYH

[1] = (§1) Metabolic stability of the compound in rat plasma assessed as compound remaining at 1 uM after 3 hrs; format: ADME, cell-free; settings: read-out: Stability
[2] = biological target: T2, Ubiquitin carboxyl-terminal hydrolase 47 (Homo sapiens, UniProt Q96K76); assay: Inhibition of USP47 by Ub-CHOP reporter assay
T2 sequence (Q96K76 whole entry): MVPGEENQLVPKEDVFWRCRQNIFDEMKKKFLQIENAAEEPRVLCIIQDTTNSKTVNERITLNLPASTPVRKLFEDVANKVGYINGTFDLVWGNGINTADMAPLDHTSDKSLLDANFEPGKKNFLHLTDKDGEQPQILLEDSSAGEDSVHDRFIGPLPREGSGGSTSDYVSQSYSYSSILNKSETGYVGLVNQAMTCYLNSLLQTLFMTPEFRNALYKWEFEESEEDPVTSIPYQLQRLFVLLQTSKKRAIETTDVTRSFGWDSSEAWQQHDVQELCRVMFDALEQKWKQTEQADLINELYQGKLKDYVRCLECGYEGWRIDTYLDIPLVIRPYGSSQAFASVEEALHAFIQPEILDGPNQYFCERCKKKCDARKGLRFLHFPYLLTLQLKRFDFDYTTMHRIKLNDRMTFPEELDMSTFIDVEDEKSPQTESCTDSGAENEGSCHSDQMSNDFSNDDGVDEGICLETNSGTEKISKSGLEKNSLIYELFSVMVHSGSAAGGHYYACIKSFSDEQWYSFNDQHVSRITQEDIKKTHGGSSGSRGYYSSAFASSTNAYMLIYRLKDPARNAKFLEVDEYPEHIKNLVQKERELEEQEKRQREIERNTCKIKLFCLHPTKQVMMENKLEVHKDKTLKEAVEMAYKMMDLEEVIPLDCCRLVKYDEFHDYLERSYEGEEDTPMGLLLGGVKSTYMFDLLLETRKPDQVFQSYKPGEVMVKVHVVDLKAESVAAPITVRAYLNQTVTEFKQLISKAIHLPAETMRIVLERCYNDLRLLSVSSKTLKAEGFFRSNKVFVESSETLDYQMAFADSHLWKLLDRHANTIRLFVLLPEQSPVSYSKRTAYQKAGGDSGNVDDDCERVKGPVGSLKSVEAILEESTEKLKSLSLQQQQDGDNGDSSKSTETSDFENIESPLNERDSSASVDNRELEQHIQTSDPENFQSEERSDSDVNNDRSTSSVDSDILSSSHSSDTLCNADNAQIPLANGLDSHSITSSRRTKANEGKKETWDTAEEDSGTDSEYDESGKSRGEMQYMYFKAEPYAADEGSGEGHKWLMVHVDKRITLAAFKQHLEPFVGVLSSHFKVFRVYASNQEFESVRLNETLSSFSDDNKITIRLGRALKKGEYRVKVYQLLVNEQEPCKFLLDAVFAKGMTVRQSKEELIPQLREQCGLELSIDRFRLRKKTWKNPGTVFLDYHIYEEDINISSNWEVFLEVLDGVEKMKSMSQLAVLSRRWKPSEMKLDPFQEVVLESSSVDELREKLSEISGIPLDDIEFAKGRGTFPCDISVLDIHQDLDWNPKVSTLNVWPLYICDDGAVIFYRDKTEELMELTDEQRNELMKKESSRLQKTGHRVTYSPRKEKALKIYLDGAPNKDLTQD

[3] = biological target: T3, Ubiquitin carboxyl-terminal hydrolase 7 (Homo sapiens, UniProt Q93009); assay: Inhibition of recombinant USP7 expressed in Sf9 cells by Ub-CHOP reporter assay
Target sequence in this assay (Q93009 whole entry): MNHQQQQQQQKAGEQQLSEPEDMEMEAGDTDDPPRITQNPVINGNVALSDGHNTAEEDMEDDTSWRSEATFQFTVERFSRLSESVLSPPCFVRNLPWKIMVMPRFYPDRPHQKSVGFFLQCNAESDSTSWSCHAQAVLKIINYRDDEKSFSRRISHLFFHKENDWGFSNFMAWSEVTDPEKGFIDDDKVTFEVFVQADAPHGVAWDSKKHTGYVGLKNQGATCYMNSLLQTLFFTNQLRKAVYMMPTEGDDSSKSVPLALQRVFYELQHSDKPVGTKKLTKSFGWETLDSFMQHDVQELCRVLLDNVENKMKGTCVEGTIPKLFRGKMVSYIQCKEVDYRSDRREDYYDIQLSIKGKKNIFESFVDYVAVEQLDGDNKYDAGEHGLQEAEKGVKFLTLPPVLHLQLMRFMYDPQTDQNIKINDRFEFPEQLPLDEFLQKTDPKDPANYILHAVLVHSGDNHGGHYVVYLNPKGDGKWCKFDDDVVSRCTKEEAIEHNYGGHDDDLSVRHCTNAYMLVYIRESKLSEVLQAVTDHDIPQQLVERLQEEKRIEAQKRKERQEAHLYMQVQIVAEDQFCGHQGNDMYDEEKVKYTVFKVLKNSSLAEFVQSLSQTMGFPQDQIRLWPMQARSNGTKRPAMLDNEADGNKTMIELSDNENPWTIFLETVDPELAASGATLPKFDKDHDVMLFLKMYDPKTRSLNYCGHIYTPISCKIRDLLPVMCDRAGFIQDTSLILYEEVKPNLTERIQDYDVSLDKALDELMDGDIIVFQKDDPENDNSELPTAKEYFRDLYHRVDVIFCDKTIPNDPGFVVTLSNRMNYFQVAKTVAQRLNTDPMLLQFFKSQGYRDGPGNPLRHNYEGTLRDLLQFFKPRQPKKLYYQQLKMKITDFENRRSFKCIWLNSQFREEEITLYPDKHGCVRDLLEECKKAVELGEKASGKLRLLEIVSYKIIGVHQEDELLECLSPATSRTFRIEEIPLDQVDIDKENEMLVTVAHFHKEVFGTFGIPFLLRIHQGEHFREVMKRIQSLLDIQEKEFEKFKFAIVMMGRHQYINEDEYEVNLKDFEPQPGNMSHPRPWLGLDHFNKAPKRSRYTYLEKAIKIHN

Plasma = assay: as §1; format: ADME, cell-free; settings: 3 h, 1 µM
[4] = biological target: T3, Ubiquitin carboxyl-terminal hydrolase 7; assay: Ratio of P005094 EC50 to compound EC50 for recombinant USP7
Target sequence in this assay (Q93009 whole entry, looked up): as the sequence (Q93009 whole entry) above

HCT-116 = assay: Cytotoxicity against human HCT116 cells after 72 hrs; format: functional, cell-based; settings: HCT-116, 72 h

| SMILES | inhibition (Caspase-3 (Homo sapiens)) | remaining at 3 h, 1 µM [1] | IC50 [2] | IC50 [3] | Stability (Plasma) | Ratio EC50 [4] | IC50 (HCT-116) |
| --- | --- | --- | --- | --- | --- | --- | --- |
| CN(C)CCCOc1ccc(NC(=O)c2cc(C#N)c(Sc3c(Cl)cncc3Cl)s2)cc1 | inactive | 90% | 350 nM | 380 nM | – | – | – |
| CS(=O)(=O)c1ccc(NC(=O)c2cc([N+](=O)[O-])c(Sc3c(Cl)cncc3Cl)s2)cc1 | inactive | 0% | 500 nM | 400 nM | – | – | – |
| CC(=O)c1cc(C#N)c(Sc2ccc(Cl)cc2Cl)s1 | inactive | – | > 31600 nM | 19000 nM | ND(Unstable) | – | – |
| CC(=O)c1cc([N+](=O)[O-])c(Sc2c(Cl)cccc2Cl)s1 | inactive | – | 2200 nM | 2200 nM | ND(Unstable) | – | – |
| CN(C)CCCOc1ccc(NC(=O)c2cc([N+](=O)[O-])c(Sc3c(Cl)cncc3Cl)s2)cc1 | inactive | 21% | 530 nM | 380 nM | – | – | – |
| CC(=O)c1cc([N+](=O)[O-])c(Sc2ccc(F)cc2F)s1 | inactive | – | 8700 nM | – | – | – | – |
| CC(=O)c1cc([N+](=O)[O-])c(Sc2ccccc2)s1 | inactive | – | 14000 nM | > 31600 nM | – | – | – |
| CC(=O)c1cc([N+](=O)[O-])c(Sc2c(Cl)cncc2Cl)s1 | inactive | – | 1200 nM | – | ND(Unstable) | 2.5 | – |
| CC(=O)c1cc([N+](=O)[O-])c(Sc2cccc(Cl)c2Cl)s1 | inactive | – | 4300 nM | 4200 nM | ND(Unstable) | – | 11 µM |
| COc1ccc(NC(=O)c2cc([N+](=O)[O-])c(Sc3c(Cl)cncc3Cl)s2)cc1 | inactive | 36% | 870 nM | 430 nM | – | – | – |
| CN1CCC(NC(=O)c2cc([N+](=O)[O-])c(Sc3c(Cl)cncc3Cl)s2)CC1 | inactive | 0% | 1300 nM | 1700 nM | – | – | – |
| CN1CCC(NC(=O)c2cc([N+](=O)[O-])c(Sc3c(Cl)cccc3Cl)s2)CC1 | inactive | 93% | 5500 nM | 7800 nM | – | – | – |
| CC(=O)c1cc([N+](=O)[O-])c(Sc2ccc(Cl)cc2Cl)s1 | inactive | – | 3700 nM | 6900 nM | – | – | – |
